Assay results reported in patent publication US8987309B2, “Compounds, pharmaceutical compositions and methods of use of 2-aryl pyridylazoles” (The Translational Genomics Research Institute, priority 2009, dated 2015).
Where “and” joins values, the source holds several entries; their conditions need not be identical. Equal entries are not always repeated.

Tests used:
[1] = test system: BxPC3 DPC-4(+/+) and BxPC3 DPC-4(−/−) cells; test: Cytotoxicity (96-h MTT) in isogenic BxPC3 cell lines; assay type: cell-based, Human
Description: Cell lines and Culture Conditions. Human pancreatic cancer cell lines MiaPaCa-2 (Yunis et al., 1977), Panc-1 (Lieber et al., 1975), and BxPC3 (Tan et al., 1986) were purchased from the American Type Culture Collection (Manassas, Va.) and cultured in a humidified incubator at 37° C., 5% CO2, in RPMI 1640 medium (CellGro, Manassas, Va.) supplemented with 10% heat-inactivated bovine calf serum, 2 mM L-glutamine, 100 U/ml penicillin, and 100 µg/ml streptomycin (Invitrogen, Carlsbad, Calif.). MiaPaCa-2 (CRL-1420) is an adherent epithelial human pancreatic cancer cell line with a doubling time of approximately 40 h (Yunis et al., 1977). Panc-1 (CRL-1469) is an undifferentiated human pancreatic epithelial cell line with a doubling time of approximately 52 h (Lieber et al., 1975). The BxPC3 cell line DPC-4(−/−) and its isogenic restored wild-type DPC-4(+/+) cell line were developed and cultured as described previously (Wang et al., 2006). In brief, a DPC-4-expressing construct (pMSCVneoDPC-4) was created by amplifying full-length cDNA of DPC-4 using reverse transcriptase-PCR and subcloning into the multiple cloning site of a retroviral vector (pMSCVneo). The DPC-4-expressing construct was cotransfected into the BxPC3 DPC-4(−/−) cells using a packaging cell line, resulting in a cell line that constitutively expresses DPC-4. The expression of DPC-4 was confirmed by Western blotting (Wang et al., 2006).
(§1) Cytotoxicity Assays. Cytotoxicity assays in the mechanism of action studies were performed according to Mosmann (1983), wherein the activity of mitochondrial reductases were measured using 3-(4,5-dimethylthiozol-3-yl)-2,5-diphenyltetrozolium bromide dye. In brief, cells were seeded in 96-well plates and incubated for various times at 37° C. Inhibition of cell growth was measured by adding 3-(4,5-dimethylthiozol-3-yl)-2,5-diphenyltetrozolium bromide dye, and after an additional 4 h of incubation at 37° C., the 96-well plates were centrifuged, and the culture supernatant was removed. DMSO was added to each well to solubilize the formazan crystals, and the optical density was read at 540 nm on a Quant Spectrophotometer (BioTek Instruments, Winooski, Vt.). Cell growth inhibition data are expressed as percentage of survival compared with untreated cells. The IC50 is defined as the drug concentration required to produce 50% growth inhibition. Results are mean S.E.M. (n 3).
Mean±S.E.M., n=3. […] Mean±S.E.M., n=3. […] Mean tumor burden is shown.

CDK2/cyclin A = target: T1, CDK2/cyclin A (Homo sapiens, UniProt P24941); test: Initial kinase screening (Amphora), CDK2/cyclin A; assay type: biochemical; details: 10 μM compound
T1 construct: assay run by Amphora Discovery Corporation (Durham, N.C.)
Description: (§2) Kinase Screening. Initial kinase screening was performed by Amphora Discovery Corporation (Durham, N.C.).

48 protein kinases = test: Initial kinase screening (Amphora), panel of 48 protein kinases; assay type: biochemical; details: 10 μM compound
Description: as §2

Solubility (statement) = assay type: physicochemical
PC3 = test: IC50 in tumor cell lines (PC3); assay type: cell-based; details: Table 1; prostate tumor cell line PC3
Description: as §1

DU145 = test: IC50 in tumor cell lines (DU145); assay type: cell-based; details: Table 1; prostate tumor cell line DU145
Description: as §1

H460 = test: IC50 in tumor cell lines (H460); assay type: cell-based; details: Table 1; lung tumor cell line H460
Description: as §1

A549 = test: IC50 in tumor cell lines (A549); assay type: cell-based; details: Table 1; lung tumor cell line A549
Description: as §1

PIM-1 = PIM-1 (Homo sapiens, UniProt P11309); test: Initial kinase screening (Amphora), PIM-1; assay type: biochemical; set-up: assay run by Amphora Discovery Corporation (Durham, N.C.); details: 10 μM compound
Sequence of PIM-1 (P11309 whole entry): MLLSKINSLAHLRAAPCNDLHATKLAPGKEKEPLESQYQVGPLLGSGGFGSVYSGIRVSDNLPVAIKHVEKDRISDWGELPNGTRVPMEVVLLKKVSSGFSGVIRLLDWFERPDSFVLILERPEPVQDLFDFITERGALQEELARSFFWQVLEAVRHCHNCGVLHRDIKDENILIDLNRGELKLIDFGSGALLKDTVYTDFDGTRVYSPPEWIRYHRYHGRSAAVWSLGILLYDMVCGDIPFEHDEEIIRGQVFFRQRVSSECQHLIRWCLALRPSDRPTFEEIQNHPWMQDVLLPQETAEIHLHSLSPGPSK
Description: as §2

TrkB = TrkB (Homo sapiens, UniProt Q16620); test: Initial kinase screening (Amphora), TrkB; assay type: biochemical; set-up: assay run by Amphora Discovery Corporation (Durham, N.C.); details: 10 μM compound
Sequence of TrkB (Q16620 32-822): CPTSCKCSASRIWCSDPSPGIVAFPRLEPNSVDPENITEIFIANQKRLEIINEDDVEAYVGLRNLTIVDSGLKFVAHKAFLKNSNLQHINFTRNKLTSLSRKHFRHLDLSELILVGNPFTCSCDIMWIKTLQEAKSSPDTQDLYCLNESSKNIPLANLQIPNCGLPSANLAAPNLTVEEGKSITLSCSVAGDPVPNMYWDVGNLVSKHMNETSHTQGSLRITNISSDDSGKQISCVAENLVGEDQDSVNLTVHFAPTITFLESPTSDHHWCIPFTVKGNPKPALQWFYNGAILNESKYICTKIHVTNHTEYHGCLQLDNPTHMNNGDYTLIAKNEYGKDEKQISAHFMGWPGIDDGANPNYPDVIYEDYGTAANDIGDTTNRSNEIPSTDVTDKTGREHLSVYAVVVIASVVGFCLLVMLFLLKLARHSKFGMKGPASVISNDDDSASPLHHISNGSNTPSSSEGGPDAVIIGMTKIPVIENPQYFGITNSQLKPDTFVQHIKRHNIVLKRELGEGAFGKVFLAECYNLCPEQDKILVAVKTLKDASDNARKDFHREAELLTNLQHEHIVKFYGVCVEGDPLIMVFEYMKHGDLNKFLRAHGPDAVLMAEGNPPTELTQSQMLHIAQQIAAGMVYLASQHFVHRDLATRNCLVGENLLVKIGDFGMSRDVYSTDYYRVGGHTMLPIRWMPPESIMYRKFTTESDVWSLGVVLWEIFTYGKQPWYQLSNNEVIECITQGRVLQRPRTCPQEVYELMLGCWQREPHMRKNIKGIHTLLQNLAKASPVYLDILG
Description: as §2

PDGFRα = target: T2, PDGFRα (Homo sapiens, UniProt P16234); test: Initial kinase screening (Amphora), PDGFRα; assay type: biochemical; details: 10 μM compound
T2 construct: assay run by Amphora Discovery Corporation (Durham, N.C.)
T2 sequence (P16234 24-1089, species assumed): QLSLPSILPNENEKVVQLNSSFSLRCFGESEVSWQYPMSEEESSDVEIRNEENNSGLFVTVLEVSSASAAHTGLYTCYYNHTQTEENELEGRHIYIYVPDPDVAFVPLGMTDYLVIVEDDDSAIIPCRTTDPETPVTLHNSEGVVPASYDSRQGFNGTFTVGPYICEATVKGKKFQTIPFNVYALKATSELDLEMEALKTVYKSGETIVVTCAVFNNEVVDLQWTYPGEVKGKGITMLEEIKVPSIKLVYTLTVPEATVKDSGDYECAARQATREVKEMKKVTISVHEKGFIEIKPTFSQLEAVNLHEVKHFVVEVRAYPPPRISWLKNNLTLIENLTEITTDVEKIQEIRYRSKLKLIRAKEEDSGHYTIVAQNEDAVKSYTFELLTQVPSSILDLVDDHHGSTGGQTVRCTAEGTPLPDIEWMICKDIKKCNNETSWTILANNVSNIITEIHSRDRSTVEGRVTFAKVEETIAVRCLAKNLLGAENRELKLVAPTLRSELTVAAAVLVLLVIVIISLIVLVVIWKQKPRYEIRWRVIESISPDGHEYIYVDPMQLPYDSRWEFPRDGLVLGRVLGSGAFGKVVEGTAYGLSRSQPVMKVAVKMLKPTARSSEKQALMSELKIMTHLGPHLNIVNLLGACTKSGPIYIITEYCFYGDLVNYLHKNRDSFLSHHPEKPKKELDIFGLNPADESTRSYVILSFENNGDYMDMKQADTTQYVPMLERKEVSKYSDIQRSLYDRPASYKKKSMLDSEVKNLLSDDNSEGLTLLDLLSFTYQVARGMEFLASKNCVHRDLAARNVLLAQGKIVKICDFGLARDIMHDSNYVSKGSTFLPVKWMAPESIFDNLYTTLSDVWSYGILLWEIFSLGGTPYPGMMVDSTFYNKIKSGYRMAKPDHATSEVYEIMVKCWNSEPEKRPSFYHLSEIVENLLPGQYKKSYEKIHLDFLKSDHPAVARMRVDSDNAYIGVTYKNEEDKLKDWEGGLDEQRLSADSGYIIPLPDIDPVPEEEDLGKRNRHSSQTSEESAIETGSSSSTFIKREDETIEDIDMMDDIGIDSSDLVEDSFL
Description: as §2

PDGFRβ = target: T3, PDGFRβ (Homo sapiens, UniProt P09619); test: Initial kinase screening (Amphora), PDGFRβ; assay type: biochemical; details: 10 μM compound
T3 construct: assay run by Amphora Discovery Corporation (Durham, N.C.)
T3 sequence (P09619 33-1106, species assumed): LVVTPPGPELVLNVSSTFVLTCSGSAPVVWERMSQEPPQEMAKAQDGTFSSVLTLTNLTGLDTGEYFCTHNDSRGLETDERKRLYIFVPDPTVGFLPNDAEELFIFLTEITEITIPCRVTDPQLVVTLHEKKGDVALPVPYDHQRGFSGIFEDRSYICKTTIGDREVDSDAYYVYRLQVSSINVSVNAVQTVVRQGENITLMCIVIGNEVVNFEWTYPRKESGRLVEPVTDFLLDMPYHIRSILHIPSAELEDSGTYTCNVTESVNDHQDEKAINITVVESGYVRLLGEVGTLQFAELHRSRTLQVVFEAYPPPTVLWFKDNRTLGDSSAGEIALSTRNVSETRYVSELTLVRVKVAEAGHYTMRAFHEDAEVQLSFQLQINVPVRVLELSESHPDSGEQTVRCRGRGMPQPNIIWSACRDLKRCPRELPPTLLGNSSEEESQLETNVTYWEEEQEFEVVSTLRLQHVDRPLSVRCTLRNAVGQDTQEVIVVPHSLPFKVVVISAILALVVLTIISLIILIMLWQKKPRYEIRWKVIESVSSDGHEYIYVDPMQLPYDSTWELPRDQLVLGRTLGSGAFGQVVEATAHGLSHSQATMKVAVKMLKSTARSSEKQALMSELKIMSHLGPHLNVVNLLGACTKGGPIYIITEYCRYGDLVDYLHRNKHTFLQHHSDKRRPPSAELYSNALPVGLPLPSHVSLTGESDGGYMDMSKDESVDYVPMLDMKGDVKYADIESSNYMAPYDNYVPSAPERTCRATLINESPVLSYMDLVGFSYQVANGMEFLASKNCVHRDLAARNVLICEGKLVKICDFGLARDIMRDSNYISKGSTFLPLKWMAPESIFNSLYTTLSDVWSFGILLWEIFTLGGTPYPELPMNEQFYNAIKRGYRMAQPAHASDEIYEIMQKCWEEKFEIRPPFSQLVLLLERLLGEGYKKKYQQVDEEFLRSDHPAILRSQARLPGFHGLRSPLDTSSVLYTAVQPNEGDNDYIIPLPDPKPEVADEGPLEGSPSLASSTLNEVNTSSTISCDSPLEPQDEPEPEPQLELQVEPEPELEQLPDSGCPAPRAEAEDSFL
Description: as §2

inhibition of CDK2/cyclin A (CDK2/cyclin A) [%] | inhibition of any protein kinases (panel, in words) (48 protein kinases) | solubility (in words) (Solubility (statement)) | IC50 (PC3) [nM] | IC50 (DU145) [nM] | IC50 (H460) [nM] | IC50 (A549) [nM] | inhibition of PIM-1 (PIM-1) [%] | inhibition of TrkB (TrkB) [%] | inhibition of PDGFRα (PDGFRα) [%] | inhibition of PDGFRβ (PDGFRβ) [%] | Structure (SMILES) | potency against BxPC3 cell lines (in words) [1] | selectivity index ([1]; ratio of the IC50 in BxPC3 DPC-4(+/+) to BxPC3 DPC-4(−/−) cells)
57 | no significant (>50%) inhibition | lack of solubility | – | – | – | – | – | – | – | – | COc1ccc(-c2cnc(-c3cccc4c3-c3ccccc3C4=O)o2)cc1 [UA-62784, reference compound] | high potency | 2 and 1.9
– | – | – | 9.9 | 20 | 50 | 33 | ~50 | ~50 | – | – | COc1ccc(-c2cnc(-c3ccncc3-c3ccccc3)o2)cc1 [DPC043] | retained potency | –
– | – | – | – | – | – | – | – | – | 59 | 43 | COc1ccc(-c2cnc(-c3ccccc3-c3ccccc3)o2)cc1 [DPC-026] | retained high potency | –
